Source: patent EP4729537A1, “B-LACTAMASE-INHIBITING ANTIBODY AND USE THEREOF IN THE TREATMENT AND/OR PREVENTION OF INFECTIONS CAUSED BY B-LACTAMASE-PRODUCING BACTERIA” (priority 2023, dated 2024)
Like-named read-outs stand apart in the source and are kept apart here.

Target: KPC-2 (UNIPROT Q9F663) from Klebsiella pneumoniae, SEQ ID NO. 32 (Klebsiella pneumoniae, UniProt Q9F663)
Conditions: E. coli cells
Procedure: An in vivo assay was conducted to test the inhibitory capacity of four β-lactamases from three resistant microorganisms: BlaMab from Mycobacterium abscessus, KPC-2 (UNIPROT Q9F663) and OXA-48 (UNIPROT Q6XEC0) from Klebsiella pneumoniae, and VIM-2 (UNIPROT B8QIQ9) from Pseudomonas aeruginosa. The assay utilized BL21(DE3) strain cells of Escherichia coli transformed with the expression vector pET26b(+) along with the gene sequence of each β-lactamase. Cells successfully transformed with the vector and insert were selected using a Kanamycin resistance gene (KanR) present in the vector. The presence and orientation of the insert were confirmed using PCR and sequencing. Additionally, the pET26b(+) vector has an IPTG-inducible promoter to activate the translation of the corresponding β-lactamase. The plasmid also includes a pelB export signal directing the β-lactamase to the periplasmic space of the bacteria for the inhibition assay with Ndis (nanobodies, single-domain antibodies).
To obtain Table 4 with the enzymatic constants (Km, Vmax, Kmi, and Ki) of BlaMab-2, KPC-2, VIM-2, and OXA-48 with B2 and B5, a quantitative assay was performed using a cephalosporin analog: nitrocefin. This compound changes color from yellow to red when hydrolyzed by β-lactamase, which can be quantified by measuring absorbance at 490nm. This method was used to study the membrane permeability of the antibodies in the bacteria as well as the inhibitory effect of B2 and B5 on the activity of BlaMab, KPC-2, OXA48, and VIM-2.

Chain of KPC-2 (UNIPROT Q9F663) from Klebsiella pneumoniae, SEQ ID NO. 32 (Q9F663 25-293 limits assumed): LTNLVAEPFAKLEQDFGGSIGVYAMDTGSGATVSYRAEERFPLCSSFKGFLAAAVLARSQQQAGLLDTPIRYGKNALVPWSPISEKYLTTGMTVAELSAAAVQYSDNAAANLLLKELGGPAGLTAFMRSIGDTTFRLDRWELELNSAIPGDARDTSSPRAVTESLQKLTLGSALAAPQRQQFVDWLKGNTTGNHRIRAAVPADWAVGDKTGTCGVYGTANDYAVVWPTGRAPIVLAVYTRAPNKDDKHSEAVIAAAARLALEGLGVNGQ

Compound `O=C(Cc1cccs1)N[C@@H]1C(=O)N2C(C(=O)O)=C(/C=C/c3ccc([N+](=O)[O-])cc3[N+](=O)[O-])CS[C@H]12` [nitrocefin] has a Km (read-out: Km(µM) B2, with antibody B2) of 121 µM, a Km (read-out: Km(µM) B5, with antibody B5) of 2.19 µM and a Km (read-out: Km(µM) Control without antibody, control without antibody (controls of the B2 and B5 runs)) of 1.36 µM.
